Measured values as given in PMC5540273, “Progress towards a public chemogenomic set for protein kinases and a call for contributions” (PLoS ONE, 2017).

What was measured:
Assay in all cases: KINOMEscan competition binding
[1] = molecular target: T1, LZK (Homo sapiens, UniProt O43283); conditions: read-out: %Inh LZK
T1 sequence (O43283 1-966): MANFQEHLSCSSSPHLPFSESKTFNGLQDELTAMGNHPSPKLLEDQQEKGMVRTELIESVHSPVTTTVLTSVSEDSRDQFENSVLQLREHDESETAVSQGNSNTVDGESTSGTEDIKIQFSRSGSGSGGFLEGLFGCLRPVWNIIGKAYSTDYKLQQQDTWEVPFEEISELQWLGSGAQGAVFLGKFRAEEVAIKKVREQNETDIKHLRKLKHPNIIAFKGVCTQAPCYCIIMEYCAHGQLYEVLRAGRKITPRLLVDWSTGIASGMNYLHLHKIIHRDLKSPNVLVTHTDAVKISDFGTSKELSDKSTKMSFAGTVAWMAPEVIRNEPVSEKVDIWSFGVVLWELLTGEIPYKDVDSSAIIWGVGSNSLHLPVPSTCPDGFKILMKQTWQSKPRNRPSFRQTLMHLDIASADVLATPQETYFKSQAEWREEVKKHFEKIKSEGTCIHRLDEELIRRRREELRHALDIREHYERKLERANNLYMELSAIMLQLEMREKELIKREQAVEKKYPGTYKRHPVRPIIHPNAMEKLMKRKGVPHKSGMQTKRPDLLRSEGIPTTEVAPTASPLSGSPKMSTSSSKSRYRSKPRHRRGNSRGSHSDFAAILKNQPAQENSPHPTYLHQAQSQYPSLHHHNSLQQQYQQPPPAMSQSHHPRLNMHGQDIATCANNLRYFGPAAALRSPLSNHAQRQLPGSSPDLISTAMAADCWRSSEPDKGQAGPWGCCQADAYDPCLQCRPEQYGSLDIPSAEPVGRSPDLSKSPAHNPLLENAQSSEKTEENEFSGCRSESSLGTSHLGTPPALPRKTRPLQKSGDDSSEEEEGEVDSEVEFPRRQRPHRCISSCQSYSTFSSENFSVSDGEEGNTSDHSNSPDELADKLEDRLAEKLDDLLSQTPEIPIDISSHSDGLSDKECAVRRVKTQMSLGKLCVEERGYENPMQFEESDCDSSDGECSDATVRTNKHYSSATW

[2] = molecular target: EPHA5 (Homo sapiens, UniProt P54756); conditions: read-out: %Inh EPHA5
Sequence of EPHA5 (P54756 25-1037): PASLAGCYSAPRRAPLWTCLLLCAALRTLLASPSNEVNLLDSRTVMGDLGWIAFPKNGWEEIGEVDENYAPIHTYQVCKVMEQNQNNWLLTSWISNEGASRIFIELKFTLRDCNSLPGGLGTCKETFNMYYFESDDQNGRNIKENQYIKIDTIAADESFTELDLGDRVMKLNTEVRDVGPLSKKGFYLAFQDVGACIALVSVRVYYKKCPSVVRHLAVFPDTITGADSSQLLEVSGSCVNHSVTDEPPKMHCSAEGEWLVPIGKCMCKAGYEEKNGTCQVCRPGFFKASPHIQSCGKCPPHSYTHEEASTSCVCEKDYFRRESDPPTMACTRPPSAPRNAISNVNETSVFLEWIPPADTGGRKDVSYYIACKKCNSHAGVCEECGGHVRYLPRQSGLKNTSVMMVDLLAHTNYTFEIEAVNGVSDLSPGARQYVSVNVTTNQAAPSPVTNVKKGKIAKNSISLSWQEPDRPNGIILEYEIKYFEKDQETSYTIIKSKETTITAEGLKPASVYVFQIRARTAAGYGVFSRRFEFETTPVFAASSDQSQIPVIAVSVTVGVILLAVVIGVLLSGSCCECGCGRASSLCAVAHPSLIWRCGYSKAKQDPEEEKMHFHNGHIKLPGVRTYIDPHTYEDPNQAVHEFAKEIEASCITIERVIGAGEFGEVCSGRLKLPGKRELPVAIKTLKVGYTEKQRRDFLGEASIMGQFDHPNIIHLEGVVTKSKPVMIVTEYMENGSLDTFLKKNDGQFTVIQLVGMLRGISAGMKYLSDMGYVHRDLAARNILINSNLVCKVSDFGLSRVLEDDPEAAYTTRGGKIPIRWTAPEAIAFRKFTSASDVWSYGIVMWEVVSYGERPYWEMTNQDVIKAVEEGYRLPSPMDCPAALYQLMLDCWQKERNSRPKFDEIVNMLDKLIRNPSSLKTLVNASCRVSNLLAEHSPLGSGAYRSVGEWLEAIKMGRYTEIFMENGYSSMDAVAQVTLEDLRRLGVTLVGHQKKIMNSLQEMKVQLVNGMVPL

[3] = molecular target: T2, DYRK2 (Homo sapiens, UniProt Q92630); conditions: read-out: %Inh DYRK2
T2 sequence (Q92630 1-601): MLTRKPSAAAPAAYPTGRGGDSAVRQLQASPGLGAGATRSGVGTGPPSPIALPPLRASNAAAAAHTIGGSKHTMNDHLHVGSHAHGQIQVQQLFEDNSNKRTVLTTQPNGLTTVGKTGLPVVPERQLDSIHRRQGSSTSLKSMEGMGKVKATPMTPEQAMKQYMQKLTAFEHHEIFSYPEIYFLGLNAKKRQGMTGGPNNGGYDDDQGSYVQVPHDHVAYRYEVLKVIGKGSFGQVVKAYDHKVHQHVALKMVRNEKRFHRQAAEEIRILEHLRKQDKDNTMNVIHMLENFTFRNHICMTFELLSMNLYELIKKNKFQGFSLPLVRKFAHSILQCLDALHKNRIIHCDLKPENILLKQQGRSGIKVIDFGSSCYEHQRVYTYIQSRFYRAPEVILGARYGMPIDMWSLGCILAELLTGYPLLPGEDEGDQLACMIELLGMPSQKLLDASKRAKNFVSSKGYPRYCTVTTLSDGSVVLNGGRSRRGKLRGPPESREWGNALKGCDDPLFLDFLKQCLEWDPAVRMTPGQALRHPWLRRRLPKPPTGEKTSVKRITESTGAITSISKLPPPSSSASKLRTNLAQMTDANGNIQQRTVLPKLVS

[4] = molecular target: ERBB2 (Homo sapiens, UniProt P04626); conditions: read-out: %Inh ERBB2
Sequence of ERBB2 (P04626 23-1255): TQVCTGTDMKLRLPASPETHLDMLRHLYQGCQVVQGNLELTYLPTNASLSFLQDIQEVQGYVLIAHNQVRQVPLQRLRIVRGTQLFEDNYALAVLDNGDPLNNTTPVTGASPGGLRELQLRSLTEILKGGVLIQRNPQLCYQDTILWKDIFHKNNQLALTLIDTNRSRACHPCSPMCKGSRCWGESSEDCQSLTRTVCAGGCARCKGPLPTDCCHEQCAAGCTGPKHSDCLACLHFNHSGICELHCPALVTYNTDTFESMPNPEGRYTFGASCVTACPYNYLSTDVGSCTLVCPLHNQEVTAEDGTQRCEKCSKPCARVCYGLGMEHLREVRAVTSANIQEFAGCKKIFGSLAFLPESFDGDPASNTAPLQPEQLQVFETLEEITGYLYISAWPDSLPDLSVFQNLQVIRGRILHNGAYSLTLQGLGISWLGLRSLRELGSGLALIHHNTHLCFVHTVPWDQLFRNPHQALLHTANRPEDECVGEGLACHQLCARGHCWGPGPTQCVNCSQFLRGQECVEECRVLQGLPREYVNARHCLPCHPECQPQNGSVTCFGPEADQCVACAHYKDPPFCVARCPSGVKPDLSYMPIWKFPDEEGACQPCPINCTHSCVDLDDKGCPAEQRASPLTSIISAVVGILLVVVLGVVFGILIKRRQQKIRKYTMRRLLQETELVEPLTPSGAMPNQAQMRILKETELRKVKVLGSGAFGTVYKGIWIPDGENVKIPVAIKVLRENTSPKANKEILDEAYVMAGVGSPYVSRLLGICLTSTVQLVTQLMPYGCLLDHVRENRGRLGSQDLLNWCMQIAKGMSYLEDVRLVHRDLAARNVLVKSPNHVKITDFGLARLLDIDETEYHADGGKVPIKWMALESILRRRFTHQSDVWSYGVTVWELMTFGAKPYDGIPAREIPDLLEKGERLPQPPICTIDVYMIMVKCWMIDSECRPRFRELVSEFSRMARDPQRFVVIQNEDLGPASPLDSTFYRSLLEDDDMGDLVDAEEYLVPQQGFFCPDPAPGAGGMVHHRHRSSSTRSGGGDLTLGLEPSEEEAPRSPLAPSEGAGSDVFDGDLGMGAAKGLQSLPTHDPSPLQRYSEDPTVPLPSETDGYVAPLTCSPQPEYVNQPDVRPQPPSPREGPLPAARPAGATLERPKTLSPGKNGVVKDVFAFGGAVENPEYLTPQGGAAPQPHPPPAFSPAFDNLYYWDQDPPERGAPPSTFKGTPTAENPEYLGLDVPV

[5] = molecular target: T3, IRAK3 (Homo sapiens, UniProt Q9Y616); conditions: read-out: %Inh IRAK3
T3 sequence (Q9Y616 1-596): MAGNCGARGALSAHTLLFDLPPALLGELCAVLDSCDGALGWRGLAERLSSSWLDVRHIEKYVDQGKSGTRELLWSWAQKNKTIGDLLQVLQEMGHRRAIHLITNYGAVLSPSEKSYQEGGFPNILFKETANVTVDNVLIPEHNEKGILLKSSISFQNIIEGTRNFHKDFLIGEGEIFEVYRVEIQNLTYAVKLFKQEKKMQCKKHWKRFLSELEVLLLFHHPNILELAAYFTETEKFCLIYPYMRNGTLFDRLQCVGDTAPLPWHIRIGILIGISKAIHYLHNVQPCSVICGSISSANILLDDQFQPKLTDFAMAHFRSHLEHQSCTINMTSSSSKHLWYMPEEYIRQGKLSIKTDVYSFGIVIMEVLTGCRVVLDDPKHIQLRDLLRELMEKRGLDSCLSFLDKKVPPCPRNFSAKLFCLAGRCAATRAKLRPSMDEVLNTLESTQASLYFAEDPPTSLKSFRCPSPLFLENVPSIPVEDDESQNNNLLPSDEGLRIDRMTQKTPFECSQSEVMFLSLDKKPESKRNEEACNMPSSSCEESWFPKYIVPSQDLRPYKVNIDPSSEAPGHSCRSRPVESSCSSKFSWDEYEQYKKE

Question: Which inhibition at 1 µM [1] does the source give for `Cn1cc(-c2cnc(N)c3c(-c4ccc5c(c4)CCN5C(=O)Cc4ccccc4)csc23)cn1` [UNC10225012A] here?
Answer: 0%

Question: What about the inhibition at 1 µM [2] of the same compound?
Answer: 0%

Question: What about the inhibition at 1 µM [3] of the same compound?
Answer: 8%

Question: What about the inhibition at 1 µM [4] of the same compound?
Answer: 0%

Question: What about the inhibition at 1 µM [5] of the same compound?
Answer: 5%

Question: For `CS(=O)(=O)Cc1ccc(Nc2nccc(-c3c(-c4cccc(NC(=O)C5CCCCC5)c4)nn4ncccc34)n2)cc1` [UNC10225159A], which inhibition at 1 µM [1] is on record?
Answer: 0%

Question: What about the inhibition at 1 µM [2] of the same compound?
Answer: 0%

Question: What about the inhibition at 1 µM [3] of the same compound?
Answer: 5%

Question: What about the inhibition at 1 µM [4] of the same compound?
Answer: 25%

Question: And the inhibition at 1 µM [5]?
Answer: 3%

Question: How did the inhibition at 1 µM [1] turn out when `Cc1ccc(NC(=O)Nc2cccc(C(F)(F)F)c2)cc1` [UNC10225187A] was run?
Answer: 0%

Question: And the inhibition at 1 µM [2]?
Answer: 0%

Question: And the inhibition at 1 µM [3]?
Answer: 0%

Question: And the inhibition at 1 µM [4]?
Answer: 0%

Question: What about the inhibition at 1 µM [5] of the same compound?
Answer: 100%

Question: With `COc1cccc(OC)c1C(=O)Nc1cccc(-c2nn3ccccc3c2-c2ccnc(Nc3cccc(F)c3)n2)c1` [UNC10225310A] as the compound, how does the inhibition at 1 µM [1] read?
Answer: 8%

Question: What about the inhibition at 1 µM [2] of the same compound?
Answer: 11%

Question: And the inhibition at 1 µM [3]?
Answer: 0%

Question: What about the inhibition at 1 µM [4] of the same compound?
Answer: 61%

Question: And the inhibition at 1 µM [5]?
Answer: 0%

Question: How did the inhibition at 1 µM [1] turn out when `O=c1cc(N2CCOCC2)nc2n(Cc3cccc(Cl)c3Cl)c(C3CC3)nn12` [UNC10225469A] was run?
Answer: 0%

Question: And the inhibition at 1 µM [2]?
Answer: 6%

Question: And the inhibition at 1 µM [3]?
Answer: 1%

Question: What about the inhibition at 1 µM [4] of the same compound?
Answer: 0%

Question: And the inhibition at 1 µM [5]?
Answer: 0%
